Ends that are not written are not given here.
Tests used:
[1] = system: BaF3 cells stably expressing FGFR (human); assay: Cell proliferation-promoting effect on BaF3 cells stably expressing human FGFR; assay type: cell-based; conditions: BaF3 with human FGFR; viable cells at the addition concentration (0.001 to 10 nmol/L) with largest number; 2 nights
Experimental: (§1) The FGFR phosphorylation ability of the cyclic peptide complex was evaluated using the BaF3 cell proliferation-promoting effect in which FGFR was stably expressed.
(§2) BaF3 cells stably expressing FGFR were established by introducing a vector (human: Gene Copocia, EX-Y2820-M67, bovine: sequence of Accession No. A4IFL5 was introduced into pCDNA3.1/Hygro(+) Mammalian Expression Vector (Thermo, V87020), porcine: sequence of Accession No. A0A8DIE4H1 was introduced into pCDNA3.1/Hygro(+) Mammalian Expression Vector (Thermo, V87020), and avian: sequence of Accession No. P21804 was introduced into pCDNA3.1/Hygro(+) Mammalian Expression Vector (Thermo, V87020)) into which FGFR gene had been incorporated, into BaF3 cells using NucleoFector (Lonza) and performing drug selection of cells into which the FGFR gene had been introduced using hygromycin.
(§3) The evaluation of the proliferation-promoting effect of BaF3 cells in which FGFR is stably expressed was performed by the following method. First, RPMI-1640 with L-Glutamine and Phenol Red (FUJIFILM Wako Pure Chemical Corporation, 189-02025) and Fetal Bovine Serum (Thermo, 10270-106) were mixed at a volume ratio of 9:1, and then heparin (STEM CELL, 07980) was added thereto such that the final concentration thereof was 8 μg/mL, thereby preparing a culture medium for evaluation (hereinafter, described as RPMI (10% FBS) medium). Next, the BaF3 cells in which FGFR had been stably expressed were washed twice with RPMI (10% FBS) culture medium, suspended in RPMI (10% FBS) culture medium in which the cyclic peptide complex had been dissolved to a final concentration of 0.001 to 10 nmol/L, and seeded in a 384-well plate. In this case, a condition in which the cyclic peptide complex was not added as a negative control was prepared. After culturing at 37° C. (5% CO2) for 2 nights, Hoechst 33342, Trihydrochloride, Trihydrate—10 mg/mL Solution in Water (Thermo, H3570), -Cellstain (registered trademark)-Calcein-AM solution (1 mg/mL DMSO solution) (DOJINDO, C396), and -Cellstain (registered trademark)-PI solution (DOJINDO, P378) were each added to RPMI (10% FBS) culture medium in a volume amount of 1/1,000 at the final concentration, and live/dead staining of the cells were performed by allowing to stand at room temperature for 1 hour, and imaging was performed using a confocal microscope (Yokogawa Electric Corporation, CQ1). The number of viable cells was calculated from the imaging data, and the cell proliferation-promoting effect was evaluated according to the following evaluation criteria. The number of viable cells in the negative control was about 20 cells/well. The evaluation result preferably satisfies the evaluation criteria A, B, or C. […]

[2] = system: BaF3 cells stably expressing FGFR (bovine); assay: Cell proliferation-promoting effect on BaF3 cells stably expressing bovine FGFR; assay type: cell-based; conditions: BaF3 with bovine FGFR; viable cells at the addition concentration (0.001 to 10 nmol/L) with largest number; 2 nights
Experimental: as §1, §2, §3

[3] = system: BaF3 cells stably expressing FGFR (porcine); assay: Cell proliferation-promoting effect on BaF3 cells stably expressing porcine FGFR; assay type: cell-based; conditions: BaF3 with porcine FGFR; viable cells at the addition concentration (0.001 to 10 nmol/L) with largest number; 2 nights
Experimental: as §1, §2, §3

[4] = system: BaF3 cells stably expressing FGFR (avian); assay: Cell proliferation-promoting effect on BaF3 cells stably expressing avian FGFR; assay type: cell-based; conditions: BaF3 with avian FGFR; viable cells at the addition concentration (0.001 to 10 nmol/L) with largest number; 2 nights
Experimental: as §1, §2, §3

[5] = Stability of cyclic peptide after alkali treatment, LC; assay type: physicochemical; conditions: alkali treatment: 0.5 mol/L sodium hydroxide aqueous solution, room temperature, 3 hours
Experimental: In addition, the stability of the cyclic peptide (SEQ ID NO: 382) containing a cysteine residue in the cyclized portion and the cyclic peptide (SEQ ID NO: 374) containing a homocysteine residue in the cyclized portion was compared under the following alkali treatment, which is a more severe condition.
The alkali treatment was performed by the following method. 25 μL of a 0.2 mg/mL cyclic peptide aqueous solution was prepared, 58.8 μL of a 0.5 mol/L sodium hydroxide aqueous solution was added to the aqueous solution, and the mixture was incubated at room temperature for 3 hours to obtain an aqueous solution of the cyclic peptide alkali-treated. The total area of all the peaks in LC/MS of the cyclic peptide before the alkali treatment was set to 100%, and the proportion of the total area of all the peaks in LC/MS of the aqueous solution of the cyclic peptide alkali-treated was determined to calculate the residual rate of the cyclic peptide.
The LC conditions used for the evaluation of molecular stability are the same as those in the measurement of the above-described cyclic peptide treated with a reducing agent.

[6] = system: hMSC-Human Mesenchymal Stem Cells; assay: Effect of maintaining MSC undifferentiated potency (gene expression); assay type: cell-based
Experimental: The effect of maintaining mesenchymal stem cell (MSC) undifferentiated potency of the cyclic peptide complex was evaluated.
MSC was prepared in the same manner as in Example 7.
The evaluation of the effect of maintaining the MSC undifferentiated potency was performed by the following method. First, a culture medium (hereinafter, referred to as a custom culture medium) in which bFGF was removed from PRIME-XV MSC Expansion XSFM (FUJIFILM Irvine Scientific, Inc., 91149) was prepared. Next, Prime-XV Human Fibronectin (FUJIFILM Irvine Scientific, Inc., 31002) was dissolved in PBS (Fujifilm Wako Pure Chemical Corporation, 164-23551), 2 μg/cm^2 of the solution was added to a 12-well plate used for proliferation, and the 12-well plate was allowed to stand at room temperature for 3 hours to coat the 12-well plate with fibronectin. Thereafter, the MSCs subjected to the subculture were peeled using Tryple Express (Thermo, 12604-013), washed once with a custom culture medium, suspended in a custom culture medium in which a cyclic peptide complex or bFGF (R&D Systems, 3718-GMP) was diluted to final concentrations of 3 nmol/L and 1 nmol/L, and seeded on a 12-well plate coated with fibronectin. In this case, conditions in which the cyclic peptide complex and bFGF were not added as a negative control were prepared. After culturing at 37° C. (5% CO2) for 2 nights, the culture medium was replaced by removing the supernatant of the culture medium and adding the same amount of a culture medium prepared to have the same composition as the removed culture medium. After further culturing at 37° C. (5% CO2) for 2 nights, RNA was extracted using an RNeasy Plus Mini Kit (Qiagen, 74136) according to the manufacturer's protocol. […] The expression level of each gene was normalized by setting the expression level of the well to which 1 nmol/L bFGF was added to 1.

[7] = 1 nmol/L bFGF versus condition without bFGF (negative control)

391 (HCSYERLQFHGHEAPFRVKVGHCSYERLQFHGHEAPFRVKV; also: cyclic, closure not given here) [compound 391]
Evaluation result of cell proliferative properties Human [1]: A (The number of viable cells is 400 cells/well or more.) | Evaluation result of cell proliferative properties Bovine [2]: A (The number of viable cells is 400 cells/well or more.) | Evaluation result of cell proliferative properties Porcine [3]: B (The number of viable cells is 200 cells/well or more and less than 400 cells/well.) | Evaluation result of cell proliferative properties Avian [4]: A (The number of viable cells is 400 cells/well or more.)

392 (HCSYERLQFHGHEAPFRVKVHCSYERLQFHGHEAPFRVKV; also: cyclic, closure not given here) [compound 392]
Evaluation result of cell proliferative properties Human [1]: A (The number of viable cells is 400 cells/well or more.) | Evaluation result of cell proliferative properties Bovine [2]: A (The number of viable cells is 400 cells/well or more.) | Evaluation result of cell proliferative properties Porcine [3]: B (The number of viable cells is 200 cells/well or more and less than 400 cells/well.) | Evaluation result of cell proliferative properties Avian [4]: B (The number of viable cells is 200 cells/well or more and less than 400 cells/well.)

395 (CSYERLQFHGHEAPFRVKVCSYERLQFHGHEAPFRVKV; also: cyclic, closure not given here) [compound 395]
Evaluation result of cell proliferative properties Human [1]: B (The number of viable cells is 200 cells/well or more and less than 400 cells/well.) | Evaluation result of cell proliferative properties Bovine [2]: A (The number of viable cells is 400 cells/well or more.) | Evaluation result of cell proliferative properties Porcine [3]: B (The number of viable cells is 200 cells/well or more and less than 400 cells/well.) | Evaluation result of cell proliferative properties Avian [4]: B (The number of viable cells is 200 cells/well or more and less than 400 cells/well.)

396 (CSYERLQFHGHEAPFRVKVCSYERLQFHGHEAPFRVKV; also: cyclic peptide) [compound 396]
Evaluation result of cell proliferative properties Human [1]: A (The number of viable cells is 400 cells/well or more.) | Evaluation result of cell proliferative properties Bovine [2]: A (The number of viable cells is 400 cells/well or more.) | Evaluation result of cell proliferative properties Porcine [3]: B (The number of viable cells is 200 cells/well or more and less than 400 cells/well.) | Evaluation result of cell proliferative properties Avian [4]: A (The number of viable cells is 400 cells/well or more.)

H-(C)-SYERLQFHGHEAPFRV-(K(acetyl))-VKKK [SEQ ID NO: 382]
residual rate of the cyclic peptide [5]: 26%

H-(Hcy)-SYERLQFHGHEAPFRV-(K(acetyl))-VKKK [SEQ ID NO: 374]
residual rate of the cyclic peptide [5]: 32%

bFGF: basic fibroblast growth factor (R&D Systems, 3718-GMP)
expression level of Nanog [6, 7]: did not change substantially | expression level of Oct4 [6, 7]: did not change substantially | expression level of Sox2 ([6]; cyclic peptide complex 3 nmol/L or bFGF 1 nmol/L, normalized to 1 nmol/L bFGF = 1, bFGF compared with negative control): changed
